The values that follow come from a melting point compilation (Tetko et al.; mined from patent text by program, amines drawn as free bases though some values may be those of a salt).

Molecules are shown by their SMILES.

The term melting point denotes the temperature of the solid-liquid transition. `C=Cc1ccc(CSC(CC(=O)O)C(=O)O)cc1` (stereo not given) came in with a melting point of 173 to 175 °C.

The molecule `Cc1cc(O)c(C(C)(C)C)cc1N` showed a melting point of 191 to 192 °C.

`O=C(Nc1cc(C(F)(F)F)cc(C(F)(F)F)c1)C1C(=O)C2CCC(C2)C1=O` (stereo not given) displayed a melting point of 88 to 90 °C.

Regarding `COc1ccc(C(=C(C)P(c2ccccc2)c2ccccc2)c2ccc(OC)cc2)cc1`, the melting point is 123 to 125 °C.

As for `O=c1cc(-c2ccccc2)c2c([nH]1)CCCC2`, the melting point fell in the range of 285 to 288 °C.

On to `CCN(C)N1CSC(=Cc2cc(C(C)(C)C)c(O)c(C(C)(C)C)c2)C1=O`, for which the melting point is 134 to 135 °C.

With `CC(=O)OC1CSC(Oc2cccnc2Cl)C(OC(C)=O)C1OC(C)=O` (stereo not given), the melting point was found to be 160 °C.

Take `COc1ccc(COc2ccc(CC(=O)O)cc2Cl)cc1`: the melting point fell in the range of 150 to 152 °C.

`O=S(=O)(Nc1ccc2c(OCc3csc(C4COc5ccccc5O4)n3)cccc2c1)C(F)(F)F` (stereo not given) yielded a melting point of 183 to 185 °C.

Molecule `COc1nc2cc(Cl)cc(I)c2nc1OC` had a melting point of 94 to 96 °C.

Molecule `O=C1CC[C@]2(O)C[C@H]1OC2=O` had a melting point of 144 to 145 °C.

As for `CC(C)(C)c1ccc(Sc2cc(C(=O)O)ccc2C(=O)O)cc1`, the melting point fell in the range of 325 to 326 °C.

On to `COc1ccc(Oc2cccc3c2C2(COc4cc5c(cc42)OCCO5)C(=O)N3C)cc1` (stereo not given), for which the melting point lay in the range of 55 to 58 °C.

In turn, `CC(C)(C)c1nc(C=O)nc(C(C)(C)C)c1O` displayed a melting point of 187 to 189 °C.

For `CCn1cc(C(=O)O)c(=O)cc1-c1ccc(NC)c(C)c1`, the melting point is 243 to 244 °C.

Regarding `Cc1c(SCCCCl)ccnc1CSc1ncccn1`, the melting point fell in the range of 83 to 85 °C.

`CCn1c(Br)cc2c(C)nc3c(Br)cnn3c21` showed a melting point of 135 to 137 °C.

`Cc1nc2n(c(=O)c1CCBr)CCCS2` registered a melting point of 215 °C.

For the molecule `N=C(N=C1NC(=O)C(=O)N1c1ccc(Cl)c(Cl)c1)Nc1ccc(Cl)c(Cl)c1`, the melting point turned out to be 220 °C.

Regarding `COC(=O)CCCCCNC(=O)/C=C/C=C/c1ccccc1[N+](=O)[O-]`, the melting point was 115 to 117 °C.

Take `COc1ccc(S(=O)(=O)Nc2cccc3c2N(C)c2ccccc2O3)cc1`: the melting point fell in the range of 151 to 153 °C.

The molecule `CCCC1COc2cc(C3COc4cc(C#N)c(F)cc4C3)c(F)cc2C1` (stereo not given) gave a melting point of 122 °C.

`OCCN1CCC(=C2c3ccccc3Sc3ccc(Cl)cc32)CC1` had a melting point of 178 to 180 °C.

`O=C1N(c2ccccc2Br)Cc2cnc(Nc3ccccc3)nc2N1CC1CCCCC1` came in with a melting point of 200 to 202 °C.

`CCCCc1cn(CCCC)c(=O)n1Cc1ccc(-c2ncccc2-c2nnn[nH]2)cc1`: the melting point fell in the range of 178 to 180 °C.

As to `CCOC(=O)C1CCc2c(sc3nc(CCl)c(Cl)c(-c4ccc(OC)cc4)c23)C1` (stereo not given), the melting point fell in the range of 113 to 114 °C.

`O=C1NCC(C(=O)O)S1` (stereo not given): the melting point is 148 to 150 °C.

As for `N#Cc1ccccc1/C=C/C(=O)Nc1cc(Cl)cc(NC(=N)c2ccccc2)c1`, the melting point was in the range of 220 to 221 °C.

In turn, `COCCC(=O)N[C@H]1CC[C@H](CCN2CCN(c3ncc(C)c4c3CCO4)CC2)CC1` gave a melting point of 164 °C.

`COc1ccc2c(c1)sc1[nH]c(=O)c(=O)[nH]c12`: the melting point was over 300 °C.

Molecule `CCCCCCCCCCCCCCCC(=O)n1cc(F)c(=O)[nH]c1=O` returned a melting point of 98 °C.

As for `O=C1Cc2cc(-c3cccc([N+](=O)[O-])c3)ccc2N1`, the melting point amounted to 269 °C.

The molecule `Cc1cc2c(-c3ccccc3)nc(N3CCN(CC(=O)c4ccc(F)cc4)CC3)nc2s1` had a melting point of 141 to 142 °C.

In turn, `CCN1C(CNC(=O)c2cc(Cl)c(N)cc2OC)CCC1c1ccccc1` (stereo not given) gave a melting point of 187 to 188 °C.

Turning to `N=C(N)NCCCCOc1ccc2c(c1)CC(CCC(=O)O)C(=O)N2` (stereo not given), the melting point lay in the range of 152 to 155 °C.

In turn, `O=C(O)COCCCC1CCCN1c1cnc(-c2ccccc2)c(-c2ccccc2)n1` (stereo not given) registered a melting point of 137 to 139 °C.

Molecule `CCCNC(=O)C(C)=Cc1ccc2ccn(Cc3ccc(C(=O)NS(=O)(=O)c4ccccc4C)cc3OC)c2c1` showed a melting point of 224 to 227 °C.

`CCc1ccc2c(c1)OC1(O)c3cccc(N)c3C(=O)C21O` (stereo not given) registered a melting point of 200 to 203 °C.

The molecule `OC[C@H]1C2CCC(C2)[C@@H]1CO` displayed a melting point of 58 °C.

In turn, `Cc1ccc(S(=O)(=O)OCC2C(CC(C)C3CCC4C(O)CCCC34C)N(C)OC2(C)C)cc1` (stereo not given) registered a melting point of 114 to 115 °C.

`NCCCCc1csc(-c2ccccn2)n1` registered a melting point of 119 to 121 °C.

`Cc1nc(N)c2nc(CO)n(NC(C)C)c2c1C` gave a melting point of 257 to 259 °C.

`COc1ccc(C2=CCN(c3ccc(Cl)c(Cl)c3)C2=O)cc1OCCN1CCCCC1` gave a melting point of 98 to 99 °C.

For the molecule `CCOC(=O)Cc1ccc(-n2cc(F)cn2)cc1`, the melting point was 83.5 to 84.5 °C.

`CCCCCCC1=CC(O)(C(Br)Br)N(CCCC)C1=O` (stereo not given) gave a melting point of 85 to 86 °C.

`CCOC(=O)[C@H](CCc1ccccc1)NC(=O)C(C)(C)NC(=O)[C@@H](S)C1CCOCC1` came in with a melting point of 157 to 158 °C.

`CC(CC1=Nc2cc(Cl)ccc2S(=O)(=O)N1)CC(C)(C)C` (stereo not given): the melting point lay in the range of 243 to 244 °C.

`CC1=CCc2c1sc1c2CN(c2ccccc2Cl)CC2N(C(=O)O)CCN12` (stereo not given) registered a melting point of 160 to 162 °C.

As to `CCOc1nc(C)ccc1C#N`, the melting point was 90 to 92 °C.

In turn, `CCCNCc1cnc2c(C)c(NC(=O)c3ccc(OC[C@@H]4CCCO4)cc3F)ccc2c1` came in with a melting point of 120 to 121 °C.

As for `CNC(=S)N1CCc2[nH]cnc2C1c1ccccc1` (stereo not given), the melting point worked out at 228 °C.

`NC(=O)CN1C(=O)C[C@@H]2CCCCCC[C@@H]21` (relative stereo) displayed a melting point of 110 to 112 °C.

In the case of `Cc1n[nH]c2cc(F)c(C3C(C#N)=C(C(F)F)NC(C(F)F)=C3C#N)cc12`, the melting point was determined as 282 °C.

`CS(=O)(=O)NCCS(=O)(=O)N1CCN(S(=O)(=O)c2ccc(-c3ccc(Cl)cc3)s2)[C@@H](C(=O)NO)C1` yielded a melting point of 118 to 122 °C.

The molecule `Fc1cc(Cl)ccc1-n1nc2c(c1Cl)CCCC2` showed a melting point of 82 to 85 °C.

In turn, `Cc1cc(-c2ncn3c(C(F)(F)F)cc(-c4cccc(C(F)(F)F)c4)nc23)ccn1` yielded a melting point of 234 °C.

With `O=C(O)CCc1cn(Cc2ccc3cc(OCc4ccccc4F)ccc3c2)cc1-c1ccccc1`, the melting point is 143 to 144 °C.

Molecule `O=C(Nc1cccnc1)c1ccc(OC(F)F)c2oc3ccccc3c12` registered a melting point of 209 to 211 °C.

In turn, `Cc1c(O)c(C)c(Cc2cc(C(C)(C)C)c(O)c(C(C)(C)C)c2)c(C)c1Cc1cc(C(C)(C)C)c(O)c(C(C)(C)C)c1` returned a melting point of 204 °C.

In turn, `CCc1cc(OC)c(-c2nc(N)sc2CCC2CCCCC2)cc1OC` displayed a melting point of 88 °C.

As for `COC(=O)c1ccc2nc3cc(C)sc3c(=O)n2c1`, the melting point was 215 to 216 °C.

In the case of `CCCCCCCCCCCCCCCCCCOc1cc(OCc2ccccc2)cc(C(=O)O)c1`, the melting point fell in the range of 97 to 99 °C.

Take `COc1c(C)cnc(CS(=O)c2nc3cc(C(F)(F)F)ccc3[nH]2)c1C` (stereo not given): the melting point came to 163 °C.

Molecule `COc1ccc(C(O)CNC(=O)C(N)=O)cc1OC1CCCC1` (stereo not given) returned a melting point of 180 to 181 °C.

The molecule `CCc1nnc2nc(-c3cccc(C(F)(F)F)c3)ccn12` showed a melting point of 223 to 224 °C.

In the case of `CCC1CC2C3CCC4=CC(=O)CCC4=C3C=CC2(C)C1OC(C)=O` (stereo not given), the melting point fell in the range of 95 to 98 °C.

In the case of `CSC1C(=O)Nc2c(C(=O)c3ccc(Cl)cc3)cccc21` (stereo not given), the melting point was 186 to 188 °C.

`C[C@H](CC(F)(F)F)C(=O)N1C(=O)O[C@@H](c2ccccc2)[C@H]1C` displayed a melting point of 72.5 to 73.5 °C.

Turning to `O=C(Nc1cc(NC(=O)C2CCCCC2)cc(NC(=O)C2CCCCC2)c1)C1CCCCC1`, the melting point turned out to be 286 °C.

Molecule `O=C(C=Cc1cccnc1)NC(Cc1c[nH]c2ccccc12)C(=O)CCc1cc(C(F)(F)F)cc(C(F)(F)F)c1` (stereo not given) registered a melting point of 138 to 139 °C.

Molecule `CC(=O)OCC1OC(SCC=Cc2ccccc2)C(OC(C)=O)C(OC(C)=O)C1OC(C)=O` (stereo not given) had a melting point of 113 to 114 °C.

Molecule `COc1cc2ncc(C#N)c(Nc3cccc(CSC(C)=O)c3)c2cc1OC` came in with a melting point of 172 to 177 °C.

`O=C(O)CC1CCN(Cc2ccccc2)C1c1c(Cl)cccc1Cl` (stereo not given) returned a melting point of 186 to 188 °C.

For `CN(C)CCn1c(=O)c(=NO)nc(-c2ccccc2)c2ccccc21`, the melting point was in the range of 232 to 234 °C.

Molecule `COc1ccc(N=C(C)c2ccccc2)cc1` came in with a melting point of 81 to 82 °C.

In the case of `CCOC(=O)Cc1c([N+](=O)[O-])cc([N+](=O)[O-])c2ccccc12`, the melting point lay within 132 to 134 °C.

The molecule `COc1nc(C)nc(NC(=O)NS(=O)(=O)c2ccccc2C(=S)C(C)C)n1` yielded a melting point of 155 to 158 °C.

Take `CC1CN2C(=NC1=O)CCC2C` (stereo not given): the melting point lay within 150 to 152 °C.

With `CC1(C)[C@@H]2CC3[C@H](C(=O)NCC(N)=O)[C@@]3(C)C[C@@H]21` (stereo not given in full), the melting point lay within 169 to 170 °C.

Turning to `CC(C(=O)O)c1ccc(-n2cccn2)c(Cl)c1` (stereo not given), the melting point lay within 83 to 85 °C.

In turn, `CS(=O)(=O)N1CCN(S(=O)(=O)C=Cc2ccccc2)C(C(=O)NO)C1` (stereo not given) showed a melting point of 94 to 99 °C.

`Cc1cc(OCC2CO2)c(N)c([N+](=O)[O-])c1` (stereo not given) came in with a melting point of 90 to 91 °C.

Turning to `COC(=O)CC[C@H](NC(=O)CCCCCCC1CNc2nc(NC(=O)C(C)(C)C)nc(O)c2C1)C(=O)OC` (stereo not given in full), the melting point fell in the range of 152 to 160 °C.

In the case of `CCCCCCCC(=O)NCc1ccccc1`, the melting point was in the range of 76 to 78 °C.

Molecule `O=C1CN(c2ccccc2)C(=O)C1c1ccccc1` (stereo not given) had a melting point of 285 to 287 °C.

In the case of `CC(=N)Nc1cccc(C(C)O)c1` (stereo not given), the melting point is 132 to 135 °C.

Take `O=C(O)C(=O)CC(=O)c1cccn1Cc1ccc(-c2ccccc2)cc1`: the melting point lay in the range of 189 to 191 °C.

The molecule `CCN(CC1CCN(C(N)=O)CC1)C(C)Cc1ccc(OC)cc1` (stereo not given) yielded a melting point of 104 to 110 °C.

`COC(=O)C#Cc1c(C#N)nn(-c2c(Cl)cc(C(F)(F)F)cc2Cl)c1N` gave a melting point of 201 to 202 °C.

`C=C(C(=O)Nc1ccc(CCc2nnco2)cc1)c1cnn(C)c1-c1ccc(F)cc1` gave a melting point of 177 to 178 °C.
